Reference: the supplement of paper PMC11208160

assay: recombinant UMI read abundance after kanamycin selection (control-corrected) (log10(CPM+1)); higher = more efficient recombination; extreme values may be limits of the assay; sequences stand for … in AGTGCAGAGAAAATCGGCCAGTTTTCTCTGCCTGCAGTCCGCATGCCGTGGGACCCCTTGGGTTCTAACCTGTTGCCTAGATTTATGCAGCGGACTGCCTTTCTCCCAAAGTGATAAACCGG…AGGTTGGTTTCACT; site = the 11-nt donor
How it was run: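 Sequencing read counts were converted to CPM, averaged over two replicates and scaled by control-derived factors. Results are given as log10(CPM+1). The reads covered the donor–target junction of recombinant UMIs from a pooled Escherichia coli screen of donor and donor-binding-loop pairs for the IS621 bridge recombinase.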
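Note: IS621 bridge recombinase in Escherichia coli cells against a fixed T5 target plasmid.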

Sequence	recombinant UMI read abundance (log10)
TAGCCTGCATGGACCGGTTTTCCCGGTAATCCGTATTTGGT (site TAGCCTCCTAC)	0.00394
TAGCCTGCATGGACCGGTTTTCCCGGTAATCCGTATTTGGT (site TAGCCTGCTAC)	0.0393
TAGCCTGCATGGACCGGTTTTCCCGGTAATCCGTATTTGGT (site TAGCCTTCTAC)	0.00419
TAGCCTTCATGGACCGGTTTTCCCGGTAATCCGTATTTGAT (site TAGCCTTCTAA)	0.00922
TAGCCTTCATGGACCGGTTTTCCCGGTAATCCGTATTTGAT (site TAGCCTTCTAC)	0.0113
TAGCCTTCATGGACCGGTTTTCCCGGTAATCCGTATTTGAT (site TAGCCTTCTAG)	0
TAGCCTTCATGGACCGGTTTTCCCGGTAATCCGTATTTGAT (site TAGCCTTCTAT)	0
TAGCCTTCATGGACCGGTTTTCCCGGTAATCCGTATTTGCT (site TAGCCTTCTAA)	0.0333
TAGCCTTCATGGACCGGTTTTCCCGGTAATCCGTATTTGCT (site TAGCCTTCTAC)	0.00853
TAGCCTTCATGGACCGGTTTTCCCGGTAATCCGTATTTGCT (site TAGCCTTCTAG)	0
TAGCCTTCATGGACCGGTTTTCCCGGTAATCCGTATTTGCT (site TAGCCTTCTAT)	0
TAGCCTTCATGGACCGGTTTTCCCGGTAATCCGTATTTGGT (site AAGCCTTCTAC)	0.00534
TAGCCTTCATGGACCGGTTTTCCCGGTAATCCGTATTTGGT (site CAGCCTTCTAC)	0.00723
TAGCCTTCATGGACCGGTTTTCCCGGTAATCCGTATTTGGT (site GAGCCTTCTAC)	0.0148
TAGCCTTCATGGACCGGTTTTCCCGGTAATCCGTATTTGGT (site TAACCTTCTAC)	0
TAGCCTTCATGGACCGGTTTTCCCGGTAATCCGTATTTGGT (site TACCCTTCTAC)	0.00592
TAGCCTTCATGGACCGGTTTTCCCGGTAATCCGTATTTGGT (site TAGACTTCTAC)	0
TAGCCTTCATGGACCGGTTTTCCCGGTAATCCGTATTTGGT (site TAGCATTCTAC)	0.0053
TAGCCTTCATGGACCGGTTTTCCCGGTAATCCGTATTTGGT (site TAGCCATCTAC)	0.00583
TAGCCTTCATGGACCGGTTTTCCCGGTAATCCGTATTTGGT (site TAGCCCTCTAC)	0.00791
TAGCCTTCATGGACCGGTTTTCCCGGTAATCCGTATTTGGT (site TAGCCGTCTAC)	0.0151
TAGCCTTCATGGACCGGTTTTCCCGGTAATCCGTATTTGGT (site TAGCCTACTAC)	0.0102
TAGCCTTCATGGACCGGTTTTCCCGGTAATCCGTATTTGGT (site TAGCCTCCTAC)	0.00585
TAGCCTTCATGGACCGGTTTTCCCGGTAATCCGTATTTGGT (site TAGCCTGCTAC)	0.0178
TAGCCTTCATGGACCGGTTTTCCCGGTAATCCGTATTTGGT (site TAGCCTTCTAA)	0.0101

Sequence	recombinant UMI read abundance (log10)
TAGCCTTCATGGACCGGTTTTCCCGGTAATCCGTATTTGGT (site TAGCCTTCTAC)	0.00564
TAGCCTTCATGGACCGGTTTTCCCGGTAATCCGTATTTGGT (site TAGCCTTCTAG)	0
TAGCCTTCATGGACCGGTTTTCCCGGTAATCCGTATTTGGT (site TAGCCTTCTAT)	0.017
TAGCCTTCATGGACCGGTTTTCCCGGTAATCCGTATTTGGT (site TAGCCTTCTCC)	0.0356
TAGCCTTCATGGACCGGTTTTCCCGGTAATCCGTATTTGGT (site TAGCCTTCTGC)	0
TAGCCTTCATGGACCGGTTTTCCCGGTAATCCGTATTTGGT (site TAGCCTTCTTC)	0.0121
TAGCCTTCATGGACCGGTTTTCCCGGTAATCCGTATTTGGT (site TAGCGTTCTAC)	0
TAGCCTTCATGGACCGGTTTTCCCGGTAATCCGTATTTGGT (site TAGCTTTCTAC)	0
TAGCCTTCATGGACCGGTTTTCCCGGTAATCCGTATTTGGT (site TAGGCTTCTAC)	0.0025
TAGCCTTCATGGACCGGTTTTCCCGGTAATCCGTATTTGGT (site TAGTCTTCTAC)	0
TAGCCTTCATGGACCGGTTTTCCCGGTAATCCGTATTTGGT (site TATCCTTCTAC)	0.379
TAGCCTTCATGGACCGGTTTTCCCGGTAATCCGTATTTGGT (site TCGCCTTCTAC)	0.0137
TAGCCTTCATGGACCGGTTTTCCCGGTAATCCGTATTTGGT (site TGGCCTTCTAC)	0
TAGCCTTCATGGACCGGTTTTCCCGGTAATCCGTATTTGGT (site TTGCCTTCTAC)	0.0116
TAGCGAGCATGGACCGGTTTTCCCGGTAATCCGTATTTGTC (site TAGCGAGCTGA)	2.41
TAGCGCTCATGGACCGGTTTTCCCGGTAATCCGTATTTGCA (site TAGCGCTCTTG)	2.33
TAGCGTTCATGGACCGGTTTTCCCGGTAATCCGTATTTGGT (site TAGCATTCTAC)	0.538
TAGCGTTCATGGACCGGTTTTCCCGGTAATCCGTATTTGGT (site TAGCCTTCTAC)	0.00546
TAGCGTTCATGGACCGGTTTTCCCGGTAATCCGTATTTGGT (site TAGCGTTCTAC)	1.12
TAGCGTTCATGGACCGGTTTTCCCGGTAATCCGTATTTGGT (site TAGCTTTCTAC)	0
TAGCTAGCATGGACCGGTTTTCCCGGTAATCCGTATTTGAT (site TAGCTAGCTAT)	1.59
TAGCTAGCATGGACCGGTTTTCCCGGTAATCCGTATTTGAT (site TAGCTAGCTCT)	0.0164
TAGCTAGCATGGACCGGTTTTCCCGGTAATCCGTATTTGAT (site TAGCTAGCTGT)	0
TAGCTAGCATGGACCGGTTTTCCCGGTAATCCGTATTTGAT (site TAGCTAGCTTT)	0.0212
TAGCTAGCATGGACCGGTTTTCCCGGTAATCCGTATTTGCA (site TAGCTAGCTTA)	0.178

Sequence	recombinant UMI read abundance (log10)
TAGCTAGCATGGACCGGTTTTCCCGGTAATCCGTATTTGCA (site TAGCTAGCTTC)	0.00756
TAGCTAGCATGGACCGGTTTTCCCGGTAATCCGTATTTGCA (site TAGCTAGCTTG)	1.01
TAGCTAGCATGGACCGGTTTTCCCGGTAATCCGTATTTGCA (site TAGCTAGCTTT)	0.0133
TAGCTAGCATGGACCGGTTTTCCCGGTAATCCGTATTTGTA (site TAGCTAGCTTA)	1.62
TAGCTAGCATGGACCGGTTTTCCCGGTAATCCGTATTTGTA (site TAGCTAGCTTC)	0.0102
TAGCTAGCATGGACCGGTTTTCCCGGTAATCCGTATTTGTA (site TAGCTAGCTTG)	0.789
TAGCTAGCATGGACCGGTTTTCCCGGTAATCCGTATTTGTA (site TAGCTAGCTTT)	0.235
TAGCTCTCATGGACCGGTTTTCCCGGTAATCCGTATTTGGG (site TAGCTCTCTCC)	0.00931
TAGGAATCATGGACCGGTTTTCCCGGTAATCCGTATTTGAG (site TAGGAATCTCA)	2.32
TAGGAATCATGGACCGGTTTTCCCGGTAATCCGTATTTGAG (site TAGGAATCTCC)	1.84
TAGGAATCATGGACCGGTTTTCCCGGTAATCCGTATTTGAG (site TAGGAATCTCG)	1.36
TAGGAATCATGGACCGGTTTTCCCGGTAATCCGTATTTGAG (site TAGGAATCTCT)	3.1
TAGGAATCATGGACCGGTTTTCCCGGTAATCCGTATTTGCG (site AAGGAATCTCG)	2.07
TAGGAATCATGGACCGGTTTTCCCGGTAATCCGTATTTGCG (site CAGGAATCTCG)	2.3
TAGGAATCATGGACCGGTTTTCCCGGTAATCCGTATTTGCG (site GAGGAATCTCG)	0
TAGGAATCATGGACCGGTTTTCCCGGTAATCCGTATTTGCG (site TAAGAATCTCG)	2.05
TAGGAATCATGGACCGGTTTTCCCGGTAATCCGTATTTGCG (site TACGAATCTCG)	1.28
TAGGAATCATGGACCGGTTTTCCCGGTAATCCGTATTTGCG (site TAGAAATCTCG)	2.39
TAGGAATCATGGACCGGTTTTCCCGGTAATCCGTATTTGCG (site TAGCAATCTCG)	1.05
TAGGAATCATGGACCGGTTTTCCCGGTAATCCGTATTTGCG (site TAGGAAACTCG)	1.27
TAGGAATCATGGACCGGTTTTCCCGGTAATCCGTATTTGCG (site TAGGAACCTCG)	0
TAGGAATCATGGACCGGTTTTCCCGGTAATCCGTATTTGCG (site TAGGAAGCTCG)	0.419
TAGGAATCATGGACCGGTTTTCCCGGTAATCCGTATTTGCG (site TAGGAATCTAG)	1.42
TAGGAATCATGGACCGGTTTTCCCGGTAATCCGTATTTGCG (site TAGGAATCTCA)	2.6
TAGGAATCATGGACCGGTTTTCCCGGTAATCCGTATTTGCG (site TAGGAATCTCC)	1.39
